Reference: patent US7094428B2, “Hemostatic compositions, devices and methods” (The University of Medicine and Dentistry of New Jersey, priority 2000, dated 2006)

Legend:
[1] = tested on: citrated blood anticoagulated with heparin; experiment: SONOCLOT clotting (recalcification) time of heparinized citrated blood; assay type: biochemical
Experimental: (§1) Results were expressed as clotting time in seconds. […] Results are expressed as mean±standard deviation.
(§2) Silver (I) ion was provided as silver nitrate, 5% stock solution. It was diluted 100 fold to 0.05%, or in some cases to 0.01% in the clotting studies. In perfusion studies, a 10 μl aliquot of the solution was applied to the filter paper then dried.
Collagen was from Sigma Chemical Co. In the clotting time studies, the final concentration of collagen was 0.1-0.2%. Heparinase was from Haemoscope Corp. and used at a final concentration of 1 U/mL.
Recalcification time was measured.

[2] = tested on: recalcified, citrated whole blood; experiment: Blood perfusion (spread of blood disk) on filter paper impregnated with the composition
Experimental: as §1, §2
The size of the blood disk on the paper was measured.

[3] = tested on: recalcified, citrated whole blood; experiment: SONOCLOT clotting time of recalcified, citrated whole blood; assay type: biochemical
Experimental: In such studies, anti-coagulated, citrated whole blood is recalcified to initiate the clotting process in a device which sensitively monitors the formation of the clot. Studies have been expanded from whole blood to include plasma.
as §1, §2
Collagen was from Sigma Chemical Co. […] Heparinase was from Haemoscope Corp. and used at a final concentration of 1 U/mL.

[4] = tested on: Platelet Poor Plasma (PPP); conditions: 2.9 mM AgNO3, n = 8
Experimental: (§3) The hemostatic compositions of the invention were evaluated in two different systems. In one system, clotting time of recalcified, citrated whole blood in the presence of the hemostatic composition was determined using a SONOCLOT Coagulation Analyzer (Sienco Inc., Wheat Ridge Colo.). […] Results were expressed as clotting time in seconds. In a second system, the hemostatic composition was dried on a cellulose matrix (filter paper), and 7 μl aliquot of fresh blood or recalcified citrated whole blood was placed in the cellulose matrix; resulting in the spreading (perfusion) of the applied blood as an enlarging disk. Upon clotting or reduced perfusion, the further spread of the blood ceases. The surface area of the spread blood in mm^2 is used as an indication of the clotting rate of the blood. Results are expressed as mean±standard deviation. The number of samples run is indicated at the top of each data column.
(§4) This study was undertaken using platelet-rich and platelet-poor plasma to simulate an individual with normal and reduced platelet levels.

[5] = tested on: Platelet Rich Plasma (PRP); conditions: 2.9 mM AgNO3, n = 8
Experimental: as §3, §4

[6] = Study I, filter paper impregnated with 5% AgNO3, 2% collagen or the combination as labelled, n = 13
[7] = Study II, filter paper impregnated with 5% AgNO3, 2% collagen or the combination as labelled, n = 5
[8] = final concentration in blood: 1% collagen, 0.6 mM AgNO3 or the combination as labelled, n = 41
[9] = thrombin 0.025 U/mL final, silver ion 2.9 mM final, n = 8

Compound: heparin [reference compound]
- Clotting time ([1]; citrated blood with heparin 2 U/mL, recalcified, silver nitrate 0.05% (in some cases 0.01%), heparinase 1 U/mL, n = 5): 1930 ± 83 s

Compound: collagen
- Perfusion [2, 6]: 35 ± 23 mm
- Perfusion [2, 7]: 28 ± 10 mm
- Clotting time [3, 8]: 264 ± 37 s

Compound: thrombin
- Clotting time [3, 9]: 156 ± 42 s

Compound: O=[N+]([O-])[O-].[Ag+] [silver(I), silver nitrate]
- Perfusion [2, 6]: 18 ± 4 mm
- Perfusion ([2]; Study II, filter paper impregnated with 1% AgNO3, n = 5): 42 ± 18 mm
- Perfusion [2, 7]: 17 ± 2 mm
- clotting time (FIG. 4, C and D) ([1]; 0.25 U/ml heparin, 0.05% or 0.3% silver (I) ion, absence of collagen): prolonged clotting time
- Clotting time ([1]; heparinized blood, without silver 1930 seconds): 872 s
- physical characteristics of the clot (clot strength), SONOCLOT tracing ([1]; heparinized whole blood): stronger clot
- Clotting time [3, 8]: 220 ± 50 s
- clot strength, SONOCLOT tracing ([3]; non-heparinized blood): the clot is stronger
- Clotting time ([3]; non-heparinized blood, without silver 217 seconds): 81 s
- Clotting time ([3]; normal blood, 2.9 mM AgNO3, n = 8): 109 ± 20 s
- Clotting time ([3]; recalcified citrated whole blood, heparin not given, silver nitrate 0.05% (in some cases 0.01%), heparinase 1 U/mL, n = 5): 94 ± 35 s
- clot strength, SONOCLOT tracing ([3]; second study): stronger clot
- Clotting time ([3]; second study, without silver 588 seconds): 168 s
- Clotting time [3, 9]: 91 ± 14 s
- Clotting time [4]: 128 ± 32 s
- Clotting time [5]: 83 ± 29 s
